Results from patent publication US20260240832A1, “USE OF NITROXOLINE COMPOUND IN ENHANCING EFFECT OF ANTIBACTERIAL AGENT” (Jiangsu Yahong Meditech Co., Ltd., priority 2022, published 2026).
Like-named read-outs stand apart in the source and are kept apart here.

Legend:
[1] = tested on: drug-resistant Escherichia coli I (a strain resistant to carbapenem antibiotics); test: Chessboard microbroth dilution MIC/FIC, compound A in combination with meropenem; format: cell-based; details: for MIC: Escherichia coli, read-out: Meropenem MIC alone; for Meropenem MIC in combination: with compound A
Text: This experiment is designed to determine the minimum inhibitory concentration (MIC) of compound A in combination with meropenem against drug-resistant Escherichia coli I (a strain resistant to carbapenem antibiotics) and drug-resistant Escherichia coli II (a strain resistant to fluoroquinolone antibiotics, non-fluoroquinolone antibiotics, aminoglycoside antibiotics, glycopeptide antibiotics and carbapenem antibiotics), and to calculate the fractional inhibitory concentration (FIC) index.
3 strains of drug-resistant Escherichia coli I, namely drug-resistant Escherichia coli 18-W09-093, drug-resistant Escherichia coli 18-W37-025, and drug-resistant Escherichia coli 18-W37-032, are provided by Shanghai Junji Medical Laboratory Co., Ltd. These 3 strains are all resistant to carbapenem antibiotics (e.g., meropenem).
(§1) According to the recommendation of the Clinical and Laboratory Standards Institute (CLSI), the microbroth dilution method designed by the chessboard method was used to determine the minimum inhibitory concentration (MIC) of compound A in combination with meropenem against the above strains, and the fractional inhibitory concentration (FIC) index was calculated.
Compound A was dissolved in dimethyl sulfoxide to obtain a stock solution I with a concentration of 1280 mg/L. The stock solution I was diluted to 512 mg/L with sterile water to obtain a gradient dilution first tube solution I. The gradient dilution first tube solution I was subjected to 1:1 gradient dilution with sterile water to obtain a working solution I with a gradient range of 512 to 0.25 mg/L.
Meropenem was dissolved in sterile water to obtain a stock solution II with a concentration of 5120 mg/L. The stock solution II was diluted to 1024 mg/L with sterile water to obtain a gradient dilution first tube solution II. The gradient dilution first tube solution II was subjected to 1:1 gradient dilution with sterile water to obtain a working solution II with a gradient range of 1024 to 0.5 mg/L.
(§2) According to the method in Example 1, a drug sensitive plate was prepared with working solution I and working solution II, and the specific process will not be repeated here.
(§3) (2) The culture medium of the bacterial solution: Cation-Adjusted Mueller-Hinton Broth (CAMHB), a product of BBL, USA, batch number 9015952.
(§4) (3) Formulation method of bacterial solution: According to the direct colony suspension method, the test bacteria cultured overnight were prepared into a 0.5 McFarland turbidity tube using physiological saline. Then, the resulting solution was dilute 100 times with the above culture medium. 100 μL of the resulting bacterial solution was mixed well with the solution (100 μL) in each well of the drug sensitivity plate, and the final inoculation amount was 10^5 CFU/mL.
(§5) (4) Culture conditions: Culturing at 35±2° C. for 20 hours in air.
(1) The experimental results were determined according to the standard of CLSI 2019 M100 29th edition.
(§6) wherein: FIC≤0.5 indicates synergistic effect; 0.5<FIC≤1.0 indicates additive effect; 1<FIC≤2.0 indicates irrelevant effect; and FIC>2 indicates antagonistic effect.

[2] = tested on: carbapenem-resistant Acinetobacter baumannii; test: as above; format: cell-based; details: for MIC: Acinetobacter baumannii, read-out: Meropenem MIC alone; for Meropenem MIC in combination: with compound A
Text: This experiment is designed to determine the minimum inhibitory concentration (MIC) of compound A in combination with meropenem against carbapenem-resistant Acinetobacter baumannii and to calculate the fractional inhibitory concentration (FIC) index.
Test bacteria: 10 strains of carbapenem-resistant Acinetobacter baumannii are clinically isolated strains, and are provided by Shanghai Junji Medical Laboratory Co., Ltd.
as §1
Compound A was dissolved in dimethyl sulfoxide to obtain a stock solution I with a concentration of 51200 mg/L. The stock solution I was subjected to 1:1 gradient dilution with dimethyl sulfoxide to obtain a dilution solution with a concentration range of 51200 to 25 mg/L. The corresponding concentrations were added to sterile water for 100-fold dilution to obtain working solution I with a concentration range of 512 to 0.25 mg/L.
Meropenem was dissolved in sterile water to obtain a stock solution with a concentration of 5120 mg/L. The […] stock solution was subjected to 1:1 gradient dilution with sterile water to obtain a working solution II with a concentration range of 512 to 0.25 mg/L.
as §2, §3, §4, §5
(1) The experimental results were determined according to the standard of CLSI 2020 M100 30th edition.
as §6

MIC ([1]; strain 18-W09-093): 256 µg/mL | MIC ([1]; strain 18-W37-025): 128 µg/mL | MIC ([1]; strain 18-W37-032): 128 µg/mL | Meropenem MIC in combination ([1]; strain 18-W09-093): 2 µg/mL | Meropenem MIC in combination ([1]; strain 18-W37-025): 1 µg/mL | Meropenem MIC in combination ([1]; strain 18-W37-032): 4 µg/mL | MIC ([2]; strain No. 1): 128 µg/mL | MIC ([2]; strain No. 2): 128 µg/mL | MIC ([2]; strain No. 3): 128 µg/mL | MIC ([2]; strain No. 4): 128 µg/mL | MIC ([2]; strain No. 5): 128 µg/mL | MIC ([2]; strain No. 6): 128 µg/mL | MIC ([2]; strain No. 7): 64 µg/mL | MIC ([2]; strain No. 8): 64 µg/mL | MIC ([2]; strain No. 9): 64 µg/mL | MIC ([2]; strain No. 10): 128 µg/mL | Meropenem MIC in combination ([2]; strain No. 1): 16 µg/mL | Meropenem MIC in combination ([2]; strain No. 2): 16 µg/mL | Meropenem MIC in combination ([2]; strain No. 3): 16 µg/mL | Meropenem MIC in combination ([2]; strain No. 4): 16 µg/mL | Meropenem MIC in combination ([2]; strain No. 5): 16 µg/mL | Meropenem MIC in combination ([2]; strain No. 6): 16 µg/mL | Meropenem MIC in combination ([2]; strain No. 7): 16 µg/mL | Meropenem MIC in combination ([2]; strain No. 8): 8 µg/mL | Meropenem MIC in combination ([2]; strain No. 9): 8 µg/mL | Meropenem MIC in combination ([2]; strain No. 10): 16 µg/mL
SMILES: C[C@@H](O)[C@H]1C(=O)N2C(C(=O)O)=C(S[C@@H]3CN[C@H](C(=O)N(C)C)C3)[C@H](C)[C@H]12 [Meropenem, reference compound]
